Results taken from ChEMBL document CHEMBL2331210, “New 2-benzylsulfanyl-nicotinic acid based 1,3,4-oxadiazoles: their synthesis and biological evaluation” (2013).
≈ marks a conversion by molar mass, not a printed value.

What was measured:
Type in all cases: functional
Aspergillus niger = assay: Antimicrobial activity against Aspergillus niger MTCC 282 assessed as growth inhibition measured after overnight incubation by broth dilution method
[1] = test system: Mycobacterium tuberculosis; assay: Antitubercular activity against Mycobacterium tuberculosis H37Rv assessed as growth inhibition after 12 to 28 days by L.J. agar MIC method; details: for MIC: Mycobacterium tuberculosis, H37Rv
Pseudomonas aeruginosa = assay: Antimicrobial activity against Pseudomonas aeruginosa MTCC 2488 assessed as growth inhibition measured after overnight incubation by broth dilution method
Candida albicans = assay: Antimicrobial activity against Candida albicans MTCC 227 assessed as growth inhibition measured after overnight incubation by broth dilution method
Staphylococcus aureus = assay: Antimicrobial activity against Staphylococcus aureus MTCC 96 assessed as growth inhibition measured after overnight incubation by broth dilution method
Escherichia coli = assay: Antimicrobial activity against Escherichia coli MTCC 443 assessed as growth inhibition measured after overnight incubation by broth dilution method
Streptococcus pyogenes = assay: Antimicrobial activity against Streptococcus pyogenes MTCC 442 assessed as growth inhibition measured after overnight incubation by broth dilution method
Aspergillus clavatus = assay: Antimicrobial activity against Aspergillus clavatus MTCC 1323 assessed as growth inhibition measured after overnight incubation by broth dilution method

COc1cc(OC)nc(NC(=O)CCl)n1
MIC (Aspergillus niger): 1000 µg/mL (≈ 4320 µM) | growth inhibition (GI) [1]: 98% | MIC [1]: 250 µg/mL (≈ 1080 µM) | MIC (Pseudomonas aeruginosa): 125 µg/mL (≈ 540 µM) | MIC (Candida albicans): 500 µg/mL (≈ 2160 µM) | MIC (Staphylococcus aureus): 500 µg/mL (≈ 2160 µM) | MIC (Escherichia coli): 100 µg/mL (≈ 432 µM) | MIC (Streptococcus pyogenes): 125 µg/mL (≈ 540 µM) | MIC (Aspergillus clavatus): > 1000 µg/mL

Cc1cnc(NC(=O)CCl)s1
MIC (Aspergillus niger): 500 µg/mL (≈ 2620 µM) | growth inhibition (GI) [1]: 97% | MIC [1]: 250 µg/mL (≈ 1310 µM) | MIC (Pseudomonas aeruginosa): 250 µg/mL (≈ 1310 µM) | MIC (Candida albicans): 200 µg/mL (≈ 1050 µM) | MIC (Staphylococcus aureus): 500 µg/mL (≈ 2620 µM) | MIC (Escherichia coli): 250 µg/mL (≈ 1310 µM) | MIC (Streptococcus pyogenes): 250 µg/mL (≈ 1310 µM) | MIC (Aspergillus clavatus): 500 µg/mL (≈ 2620 µM)

O=C(CCl)Nc1nc(Cl)cc(Cl)n1
MIC (Aspergillus niger): > 1000 µg/mL | growth inhibition (GI) [1]: 88% | MIC [1]: 500 µg/mL (≈ 2080 µM) | MIC (Pseudomonas aeruginosa): 500 µg/mL (≈ 2080 µM) | MIC (Candida albicans): 250 µg/mL (≈ 1040 µM) | MIC (Staphylococcus aureus): 500 µg/mL (≈ 2080 µM) | MIC (Escherichia coli): 200 µg/mL (≈ 832 µM) | MIC (Streptococcus pyogenes): 200 µg/mL (≈ 832 µM) | MIC (Aspergillus clavatus): > 1000 µg/mL

O=C(CCl)Nn1cnnc1
MIC (Aspergillus niger): > 1000 µg/mL | growth inhibition (GI) [1]: 90% | MIC [1]: 1000 µg/mL (≈ 6230 µM) | MIC (Pseudomonas aeruginosa): 250 µg/mL (≈ 1560 µM) | MIC (Candida albicans): 1000 µg/mL (≈ 6230 µM) | MIC (Staphylococcus aureus): 500 µg/mL (≈ 3110 µM) | MIC (Escherichia coli): 250 µg/mL (≈ 1560 µM) | MIC (Streptococcus pyogenes): 250 µg/mL (≈ 1560 µM) | MIC (Aspergillus clavatus): > 1000 µg/mL

CN1CCN(C(=O)CCl)CC1
MIC (Aspergillus niger): > 1000 µg/mL | growth inhibition (GI) [1]: 99% | MIC [1]: 250 µg/mL (≈ 1420 µM) | MIC (Pseudomonas aeruginosa): 100 µg/mL (≈ 566 µM) | MIC (Candida albicans): 1000 µg/mL (≈ 5660 µM) | MIC (Staphylococcus aureus): 250 µg/mL (≈ 1420 µM) | MIC (Escherichia coli): 125 µg/mL (≈ 708 µM) | MIC (Streptococcus pyogenes): 100 µg/mL (≈ 566 µM) | MIC (Aspergillus clavatus): 500 µg/mL (≈ 2830 µM)

Cc1ccc2sc(-c3ccc(NC(=O)CCl)cc3)nc2c1
MIC (Aspergillus niger): 1000 µg/mL (≈ 3160 µM) | growth inhibition (GI) [1]: 99% | MIC [1]: 200 µg/mL (≈ 631 µM) | MIC (Pseudomonas aeruginosa): 100 µg/mL (≈ 316 µM) | MIC (Candida albicans): 500 µg/mL (≈ 1580 µM) | MIC (Staphylococcus aureus): 250 µg/mL (≈ 789 µM) | MIC (Escherichia coli): 125 µg/mL (≈ 395 µM) | MIC (Streptococcus pyogenes): 100 µg/mL (≈ 316 µM) | MIC (Aspergillus clavatus): 500 µg/mL (≈ 1580 µM)

NNC(=O)c1cccnc1SCc1ccccc1
MIC (Aspergillus niger): 500 µg/mL (≈ 1930 µM) | growth inhibition (GI) [1]: 99% | MIC [1]: 250 µg/mL (≈ 964 µM) | MIC (Pseudomonas aeruginosa): 200 µg/mL (≈ 771 µM) | MIC (Candida albicans): 500 µg/mL (≈ 1930 µM) | MIC (Staphylococcus aureus): 125 µg/mL (≈ 482 µM) | MIC (Escherichia coli): 125 µg/mL (≈ 482 µM) | MIC (Streptococcus pyogenes): 125 µg/mL (≈ 482 µM) | MIC (Aspergillus clavatus): 250 µg/mL (≈ 964 µM)

S=c1[nH]nc(-c2cccnc2SCc2ccccc2)o1
MIC (Aspergillus niger): 1000 µg/mL (≈ 3320 µM) | growth inhibition (GI) [1]: 99% | MIC [1]: 100 µg/mL (≈ 332 µM) | MIC (Pseudomonas aeruginosa): 125 µg/mL (≈ 415 µM) | MIC (Candida albicans): 1000 µg/mL (≈ 3320 µM) | MIC (Staphylococcus aureus): 100 µg/mL (≈ 332 µM) | MIC (Escherichia coli): 100 µg/mL (≈ 332 µM) | MIC (Streptococcus pyogenes): 100 µg/mL (≈ 332 µM) | MIC (Aspergillus clavatus): 200 µg/mL (≈ 664 µM)
